Assay results from ChEMBL document CHEMBL3856212, “Synthesis, anti-proliferative and genotoxicity studies of 6-chloro-5-(2-substituted-ethyl)-1,3-dihydro-2H-indol-2-ones and 6-chloro-5-(2-chloroethyl)-3-(alkyl/ary-2-ylidene)indolin-2-ones” (Eur J Med Chem, 2016).

Columns and labels:
[1] = Cytotoxicity against human SF268 cells assessed as assessed as growth inhibition at 10^-5 M after 48 hrs by SRB assay relative to control; format: functional; details: SF-268, 48 h, read-out: GI
[2] = Induction of apoptosis in mouse EAC cells at 125 uM after 24 hrs by acridine orange dye-based fluorescence microscopy (reference value: 0.66 +/- 0.33%); format: cell-based; details: ehrlich
[3] = Cytotoxicity against human HL-60(TB) cells assessed as growth inhibition after 48 hrs by SRB assay; format: functional; details: HL-60, 48 h; for CC50: read-out: LD50 (the source's name)
[4] = Cytotoxicity against human OVCAR5 cells assessed as assessed as growth inhibition at 10^-5 M after 48 hrs by SRB assay relative to control; format: functional; details: OVCAR-5, 48 h, read-out: GI
[5] = Cytotoxicity against human 786-0 cells assessed as growth inhibition after 48 hrs by SRB assay; format: functional; details: 786-0, 48 h; for CC50: read-out: LD50 (the source's name)
[6] = Cytotoxicity against human Caki1 cells assessed as growth inhibition after 48 hrs by SRB assay; format: functional; details: CAKI-1, 48 h; for CC50: read-out: LD50 (the source's name)
[7] = Induction of apoptosis in mouse EAC cells at 500 uM after 24 hrs by acridine orange dye-based fluorescence microscopy (reference value: 0.66 +/- 0.33%); format: cell-based; details: ehrlich
[8] = Cytotoxicity against human PC3 cells assessed as assessed as growth inhibition at 10^-5 M after 48 hrs by SRB assay relative to control; format: functional; details: PC-3, 48 h, read-out: GI
[9] = Cytotoxicity against human SF539 cells assessed as growth inhibition after 48 hrs by SRB assay; format: functional; details: SF-539, 48 h; for CC50: read-out: LD50 (the source's name)
[10] = Cytotoxicity against human SK-MEL-5 cells assessed as growth inhibition after 48 hrs by SRB assay; format: functional; details: SK-MEL-5, 48 h; for CC50: read-out: LD50 (the source's name)
[11] = Cytotoxicity against human SNB19 cells assessed as growth inhibition after 48 hrs by SRB assay; format: functional; details: SNB-19, 48 h; for CC50: read-out: LD50 (the source's name)
[12] = Cytotoxicity against human KM12 cells assessed as growth inhibition after 48 hrs by SRB assay; format: functional; details: KM12, 48 h; for CC50: read-out: LD50 (the source's name)
[13] = Cytotoxicity against human HOP62 cells assessed as assessed as growth inhibition at 10^-5 M after 48 hrs by SRB assay relative to control; format: functional; details: HOP-62, 48 h, read-out: GI
[14] = Cytotoxicity against human LOXIMVI cells assessed as growth inhibition after 48 hrs by SRB assay; format: functional; details: LOX IMVI; for CC50: read-out: LD50 (the source's name)
[15] = Cytotoxicity against human OVCAR8 cells assessed as growth inhibition after 48 hrs by SRB assay; format: functional; details: OVCAR-8, 48 h; for CC50: read-out: LD50 (the source's name)
[16] = Cytotoxicity against human RXF393 cells assessed as assessed as growth inhibition at 10^-5 M after 48 hrs by SRB assay relative to control; format: functional; details: RXF 393, 48 h, read-out: GI
[17] = Cytotoxicity against human EKVX cells assessed as growth inhibition after 48 hrs by SRB assay; format: functional; details: for CC50: read-out: LD50 (the source's name)
[18] = Cytotoxicity against human SNB19 cells assessed as assessed as growth inhibition at 10^-5 M after 48 hrs by SRB assay relative to control; format: functional; details: SNB-19, 48 h, read-out: GI
[19] = Cytotoxicity against human SK-MEL-2 cells assessed as assessed as growth inhibition at 10^-5 M after 48 hrs by SRB assay relative to control; format: functional; details: SK-MEL-2, 48 h, read-out: GI
Mus musculus = species: Mus musculus; experiment: Genotoxicity in mouse EAC cells at 500 uM after 24 hrs by micronucleus assay (reference value: 3.5 +/- 0.30%); format: toxicity, cell-based; details: ehrlich
[20] = Cytotoxicity against human RPMI8226 cells assessed as growth inhibition after 48 hrs by SRB assay; format: functional; details: RPMI-8226, 48 h; for CC50: read-out: LD50 (the source's name)
[21] = Cytotoxicity against human OVCAR5 cells assessed as growth inhibition after 48 hrs by SRB assay; format: functional; details: OVCAR-5, 48 h; for CC50: read-out: LD50 (the source's name)
[22] = Cytotoxicity against human NCI-ADR-RES cells assessed as growth inhibition after 48 hrs by SRB assay; format: functional; details: for CC50: read-out: LD50 (the source's name)
[23] = Cytotoxicity against human MDA-MB-468 cells assessed as assessed as growth inhibition at 10^-5 M after 48 hrs by SRB assay relative to control; format: functional; details: MDA-MB-468, 48 h, read-out: GI
[24] = Cytotoxicity against human SK-MEL-2 cells assessed as growth inhibition after 48 hrs by SRB assay; format: functional; details: SK-MEL-2, 48 h; for CC50: read-out: LD50 (the source's name)
[25] = Cytotoxicity against human SN12C cells assessed as assessed as growth inhibition at 10^-5 M after 48 hrs by SRB assay relative to control; format: functional; details: read-out: GI
[26] = Cytotoxicity against human UACC62 cells assessed as assessed as growth inhibition at 10^-5 M after 48 hrs by SRB assay relative to control; format: functional; details: UACC-62, 48 h, read-out: GI
[27] = Cytotoxicity against human MDA-MB-231 cells assessed as assessed as growth inhibition at 10^-5 M after 48 hrs by SRB assay relative to control; format: functional; details: MDA-MB-231, 48 h, read-out: GI
[28] = Cytotoxicity against human HT-29 cells assessed as growth inhibition after 48 hrs by SRB assay; format: functional; details: HT-29, 48 h; for CC50: read-out: LD50 (the source's name)
[29] = Cytotoxicity against human OVCAR3 cells assessed as growth inhibition after 48 hrs by SRB assay; format: functional; details: OVCAR-3, 48 h; for CC50: read-out: LD50 (the source's name)
[30] = Cytotoxicity against human UACC257 cells assessed as assessed as growth inhibition at 10^-5 M after 48 hrs by SRB assay relative to control; format: functional; details: UACC-257, 48 h, read-out: GI
[31] = Cytotoxicity against human PC3 cells assessed as growth inhibition after 48 hrs by SRB assay; format: functional; details: PC-3, 48 h; for CC50: read-out: LD50 (the source's name)
[32] = Cytotoxicity against human UACC257 cells assessed as growth inhibition after 48 hrs by SRB assay; format: functional; details: UACC-257, 48 h; for CC50: read-out: LD50 (the source's name)

## O=C1Cc2cc(CCn3cncn3)c(Cl)cc2N1
[1]
  inhibition of growth at 10 µM: -10.2%
[2]
  Activity: 0.6%
[3]
  GI50: 1000 nM
  TGI: > 1000 nM
  CC50: > 1000 nM
[4]
  inhibition of growth at 10 µM: 12.6%
[5]
  GI50: 1000 nM
  TGI: > 1000 nM
  CC50: > 1000 nM
[6]
  GI50: 8350 nM
  TGI: > 1000 nM
  CC50: > 1000 nM
[7]
  Activity: 0.36%
[8]
  inhibition of growth at 10 µM: 13.6%
[9]
  GI50: 1000 nM
  TGI: > 1000 nM
  CC50: > 1000 nM
[10]
  GI50: 1010 nM
  TGI: > 1000 nM
  CC50: > 1000 nM
[11]
  GI50: 7070 nM
  TGI: > 1000 nM
  CC50: > 1000 nM
[12]
  GI50: 5420 nM
  TGI: > 1000 nM
  CC50: > 1000 nM
[13]
  inhibition of growth at 10 µM: 30.4%
[14]
  GI50: 1000 nM
  TGI: > 1000 nM
  CC50: > 1000 nM
[15]
  GI50: 6940 nM
  TGI: > 1000 nM
  CC50: > 1000 nM
[16]
  inhibition of growth at 10 µM: 38%
[17]
  GI50: 8250 nM
  TGI: > 1000 nM
  CC50: > 1000 nM
[18]
  inhibition of growth at 10 µM: 25.6%
[19]
  inhibition of growth at 10 µM: 28.7%
Mus musculus
  Activity: 5.23%
[20]
  GI50: 1000 nM
  TGI: > 1000 nM
  CC50: > 1000 nM
[21]
  GI50: 1000 nM
  TGI: > 1000 nM
  CC50: > 1000 nM
[22]
  GI50: 5850 nM
  TGI: > 1000 nM
  CC50: > 1000 nM
[23]
  inhibition of growth at 10 µM: 64.9%
[24]
  GI50: 1240 nM
  TGI: > 1000 nM
  CC50: > 1000 nM
[25]
  inhibition of growth at 10 µM: 44.2%
[26]
  inhibition of growth at 10 µM: 31.8%
[27]
  inhibition of growth at 10 µM: 44%
[28]
  GI50: 1000 nM
  TGI: > 1000 nM
  CC50: > 1000 nM
[29]
  GI50: 1000 nM
  TGI: > 1000 nM
  CC50: > 1000 nM
[30]
  inhibition of growth at 10 µM: 48.3%
[31]
  GI50: 1000 nM
  TGI: > 1000 nM
  CC50: > 1000 nM
[32]
  GI50: 7140 nM
  TGI: > 1000 nM
  CC50: > 1000 nM

## O=C1Cc2cc(CCn3ccnc3)c(Cl)cc2N1
[1]
  inhibition of growth at 10 µM: 27.6%
[2]
  Activity: 0.33%
[3]
  GI50: 6320 nM
  TGI: > 1000 nM
  CC50: > 1000 nM
[4]
  inhibition of growth at 10 µM: 18.9%
[5]
  GI50: 1000 nM
  TGI: > 1000 nM
  CC50: > 1000 nM
[6]
  GI50: 6320 nM
  TGI: > 1000 nM
  CC50: > 1000 nM
[7]
  Activity: 0.53%
[8]
  inhibition of growth at 10 µM: 11.7%
[9]
  GI50: 6000 nM
  TGI: > 1000 nM
  CC50: > 1000 nM
[10]
  GI50: 8120 nM
  TGI: > 1000 nM
  CC50: > 1000 nM
[11]
  GI50: 2210 nM
  TGI: > 1000 nM
  CC50: > 1000 nM
[12]
  GI50: 3580 nM
  TGI: 9840 nM
  CC50: > 1000 nM
[13]
  inhibition of growth at 10 µM: 33.1%
[14]
  GI50: 8530 nM
  TGI: > 1000 nM
  CC50: > 1000 nM
[15]
  GI50: 2410 nM
  TGI: > 1000 nM
  CC50: > 1000 nM
[16]
  inhibition of growth at 10 µM: 42%
[17]
  GI50: 6130 nM
  TGI: > 1000 nM
  CC50: > 1000 nM
[18]
  inhibition of growth at 10 µM: 28.5%
[19]
  inhibition of growth at 10 µM: 19.3%
Mus musculus
  Activity: 4.83%
[20]
  GI50: 4610 nM
  TGI: > 1000 nM
  CC50: > 1000 nM
[21]
  GI50: 4480 nM
  TGI: > 1000 nM
  CC50: > 1000 nM
[22]
  GI50: 5460 nM
  TGI: > 1000 nM
  CC50: > 1000 nM
[23]
  inhibition of growth at 10 µM: 69.2%
[24]
  GI50: 5780 nM
  TGI: 7360 nM
  CC50: > 1000 nM
[25]
  inhibition of growth at 10 µM: 48.8%
[26]
  inhibition of growth at 10 µM: 29.8%
[27]
  inhibition of growth at 10 µM: 54.5%
[28]
  GI50: 1000 nM
  TGI: > 1000 nM
  CC50: > 1000 nM
[29]
  GI50: 9310 nM
  TGI: 7810 nM
  CC50: > 1000 nM
[30]
  inhibition of growth at 10 µM: 39.8%
[31]
  GI50: 3560 nM
  TGI: > 1000 nM
  CC50: > 1000 nM
[32]
  CC50: > 1000 nM
